Results reported in paper PMC12337190, “A bacterial actin with high ATPase activity regulates the polymerization of a partner MreB isoform essential for Spiroplasma swimming motility” (The Journal of Biological Chemistry, 2025).
One block for each molecule: values may come before it.

What was measured:
SpeMreB5 = molecular target: T1, SpeMreB5 (Spiroplasma eriocheiris, UniProt A0A0H3XIQ3); assay: liposome cosedimentation (loss of membrane binding with nucleotide); settings: 1 mM nucleotide, SpiroLipid liposomes, 200 mM KCl, 1 mM MgCl2, pH 7.5
T1 construct: gene mreB5; full-length SpeMreB5, 6xHis tag, pCold-15b, E. coli BL21(DE3), codon-optimized
T1 sequence (A0A0H3XIQ3 1-350): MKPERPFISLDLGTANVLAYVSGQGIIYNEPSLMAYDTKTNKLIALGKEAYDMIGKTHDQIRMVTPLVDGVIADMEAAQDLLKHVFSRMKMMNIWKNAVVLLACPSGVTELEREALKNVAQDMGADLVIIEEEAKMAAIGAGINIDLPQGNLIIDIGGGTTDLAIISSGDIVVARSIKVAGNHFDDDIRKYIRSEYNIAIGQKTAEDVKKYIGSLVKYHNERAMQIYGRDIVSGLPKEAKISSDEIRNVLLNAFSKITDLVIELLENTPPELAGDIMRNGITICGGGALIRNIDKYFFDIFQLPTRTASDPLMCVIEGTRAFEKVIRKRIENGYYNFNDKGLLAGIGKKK

PrS-SpeMreB1 = molecular target: T2, PrS-SpeMreB1 (Spiroplasma eriocheiris, UniProt A0A0H3XI00); assay: sedimentation assay of polymerization; type: biochemical; settings: 2 mM ADP, 1 M NaCl, 2 mM MgCl2, pH 8.0, room temperature; polymerizes with nucleotide, not nucleotide-free
T2 construct: gene mreB1; full-length SpeMreB1; N-terminal 6xHis, two ProteinS (M. xanthus) solubilization tags, factor Xa site; C-terminal 6xHis; tags kept; 560 residues with tags; E. coli BL21(DE3), codon-optimized; monomeric gel filtration fraction
T2 sequence (A0A0H3XI00 1-346): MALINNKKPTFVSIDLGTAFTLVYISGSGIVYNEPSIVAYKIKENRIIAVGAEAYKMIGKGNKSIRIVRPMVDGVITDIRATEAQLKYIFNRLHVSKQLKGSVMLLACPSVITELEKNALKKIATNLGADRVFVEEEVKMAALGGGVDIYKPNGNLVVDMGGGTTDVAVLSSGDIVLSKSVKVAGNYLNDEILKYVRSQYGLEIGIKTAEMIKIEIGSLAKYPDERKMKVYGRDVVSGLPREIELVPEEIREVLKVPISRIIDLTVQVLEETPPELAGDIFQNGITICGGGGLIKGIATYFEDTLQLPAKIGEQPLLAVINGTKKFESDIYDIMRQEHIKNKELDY

[1] = molecular target: PrS-SpeMreB1 T164A (Spiroplasma eriocheiris); assay: sedimentation assay (ultracentrifugation); buffer S (20 mM Tris-HCl pH 8.0, 1 M NaCl, 200 mM L-arginine-HCl, 5 mM DTT, 2 mM MgCl2) with 2 mM ATP; 3 h at room temperature; 100,000 rpm, 23 °C, 90 min; critical concentration as x-intercept of the linear fit
[2] = molecular target: PrS-SpeMreB1 WT (monomeric gel-filtration fraction) (Spiroplasma eriocheiris); assay: sedimentation assay (ultracentrifugation); buffer S with 2 mM AMPPNP; 3 h at room temperature; 100,000 rpm, 23 °C, 90 min; no linear fit possible (small pellet amounts)
[3] = molecular target: PrS-SpeMreB1 WT (monomeric gel-filtration fraction) (Spiroplasma eriocheiris); assay: sedimentation assay (ultracentrifugation); buffer S with 2 mM ADP; 3 h at room temperature; 100,000 rpm, 23 °C, 90 min; critical concentration as x-intercept of the linear fit
[4] = molecular target: PrS-SpeMreB1 WT (monomeric gel-filtration fraction) (Spiroplasma eriocheiris); assay: sedimentation assay (ultracentrifugation); buffer S (20 mM Tris-HCl pH 8.0, 1 M NaCl, 200 mM L-arginine-HCl, 5 mM DTT, 2 mM MgCl2) with 2 mM ATP; 3 h at room temperature; 100,000 rpm, 23 °C, 90 min; critical concentration as x-intercept of the linear fit

Molecule: Nc1ncnc2c1ncn2[C@@H]1O[C@H](COP(=O)(O)OP(=O)(O)O)[C@@H](O)[C@H]1O [ADP]
- liposome cosedimentation (loss of membrane binding with nucleotide) (SpeMreB5): SpeMreB5 did not bind to the liposomes in the presence of nucleotides
- sedimentation assay of polymerization (PrS-SpeMreB1): PrS-SpeMreB1 was less polymerized in the presence of ADP

Molecule: Nc1ncnc2c1ncn2[C@@H]1O[C@H](COP(=O)(O)OP(=O)(O)NP(=O)(O)O)[C@@H](O)[C@H]1O [AMPPNP]
- liposome cosedimentation (loss of membrane binding with nucleotide) (SpeMreB5): SpeMreB5 did not bind to the liposomes in the presence of nucleotides

Molecule: Nc1ncnc2c1ncn2[C@@H]1O[C@H](COP(=O)(O)OP(=O)(O)OP(=O)(O)O)[C@@H](O)[C@H]1O [ATP]
- liposome cosedimentation (loss of membrane binding with nucleotide) (SpeMreB5): SpeMreB5 did not bind to the liposomes in the presence of nucleotides

Molecule: PrS-SpeMreB1 T164A (natural protein)
- critical concentration (CC) for polymerization [1]: 3 µM

- critical concentration (CC) for polymerization [2]: > 7 µM
- critical concentration (CC) for polymerization [3]: 3.8 µM
- critical concentration (CC) for polymerization [4]: 0.41 µM
Molecule: PrS-SpeMreB1 WT (monomeric gel-filtration fraction) (natural protein)
